Test results taken from US20260200944A1, “NOVEL IRAK4 INHIBITOR AND COMPOUND FOR INHIBITING AND DEGRADING IRAK4 PROTEIN, AND PREPARATION METHOD THEREFOR AND USE THEREOF” (DOVETREE MEDICINES UNUS, INC., priority 2022, published 2026).

Molecular target: T1, IRAK4 kinase protein (Homo sapiens, UniProt Q9NWZ3)
T1 sequence (Q9NWZ3 1-460): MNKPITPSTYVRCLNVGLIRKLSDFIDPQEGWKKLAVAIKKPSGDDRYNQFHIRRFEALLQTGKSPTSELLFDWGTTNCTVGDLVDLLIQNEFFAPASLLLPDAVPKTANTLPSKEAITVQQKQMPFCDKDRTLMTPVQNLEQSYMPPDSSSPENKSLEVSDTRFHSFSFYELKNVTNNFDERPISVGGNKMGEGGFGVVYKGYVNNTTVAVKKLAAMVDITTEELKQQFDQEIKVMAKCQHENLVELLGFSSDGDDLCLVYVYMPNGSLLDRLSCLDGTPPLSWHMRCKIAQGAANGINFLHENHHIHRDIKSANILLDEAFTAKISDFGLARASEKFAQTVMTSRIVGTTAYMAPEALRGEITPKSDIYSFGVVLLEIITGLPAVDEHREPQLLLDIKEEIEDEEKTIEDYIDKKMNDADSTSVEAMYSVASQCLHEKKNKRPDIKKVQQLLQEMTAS
Assay: IRAK4 kinase inhibition assay (Cisbio HTRF KinEASE-STK S1 kit)
Format: biochemical
Conditions: IRAK4 10 nM, ATP 200 μM, substrate 1 μM, 37° C. for 2 h, read-out: IRAK4 inhibitory activity IC50
Procedure: In this assay, the Cisbio HTRF KinEASE-STK SI kit (62S1PEB) was used. The assay/detection buffer, STK Substrate 1-biotin, Streptavidin-XL665, and STKAntibody-Crypatete were all contained in the kit.
After the compound/DMSO was added to a 384-well plate (PerkinElmer 6008280) using Echo 665, 5 μL of 2-fold reaction concentration of IRAK4 kinase protein (final concentration: 10 nM) dissolved with an assay buffer [1 volume of 5× kinase buffer+20 mM magnesium chloride (Sigma) solution+1 mM DTT (Alfa Aesar) solution+4 volumes of deionized water] was added. The shallow well plate was sealed, shaken, centrifuged at 1000 rpm for 1 min, and then incubated at room temperature for 5 min. Then, 5 μL of 2-fold reaction concentration of a 1:1 mixture of STK Substrate 1-biotin (final concentration: 1 μM) and ATP (Sigma A1852) (final concentration: 200 μM) formulated with the assay buffer was added. The shallow well plate was sealed, shaken, centrifuged at 1000 rpm for 1 min, and then incubated at 37° C. for 2 h, followed by the addition of 10 μL of a 1:1 mixture of Streptavidin-XL665 (final concentration: 62.5 nM) and STK-antibody-cryptate dissolved with a detection buffer. The shallow well plate was sealed, shaken, centrifuged at 1000 rpm for 1 min, and then incubated at room temperature for 1 h, and then the value at the wavelength of 620 nm/665 nm was read using a microplate reader. The data were analyzed using Prism 9.3 software, and the IC50 value of IRAK4 kinase inhibition was fitted using a four parameter Logistic equation.

SMILES | IC50 [µM]
FC(F)c1nn(C2CCCCC2)c2cnc(-n3ccc4ccc(N5CCOCC5)nc43)cc12 [Compound C1] | 5 to 10
N#Cc1cnc2c(-c3cc4c(C(F)F)nn(C5CCCCC5)c4cn3)cnn2c1 [Compound C3i] | 1 to 5
NC(=O)c1cnn2c(-c3cc4c(C(F)F)nn(C5CCCCC5)c4cn3)ccc2c1 [Compound C4ii] | < 1
N#Cc1cnc2c(ccn2-c2cc3c(C(F)F)nn(C4CCCCC4)c3cn2)c1 [Compound C5i] | > 10
NC(=O)c1cnc2c(ccn2-c2cc3c(C(F)F)nn(C4CCCCC4)c3cn2)c1 [Compound C5ii] | 1 to 5
